{
  "source": "patent US20150045387A1",
  "about": "“Bi-Aromatic And Tri-Aromatic Compounds As NADPH Oxidase 2 (Nox2) Inhibitors” (The University of Surrey, priority 2011, published 2015)",
  "format_in_all_cases": "cell-based",
  "key": {"[1]": {"system": "human liver hepatocyte cells (HepG2)", "assay": "cell viability by trypan blue exclusion and viable cell number counting, HepG2", "conditions": "HepG2, LMH001 5 and 10 μM, 24 h, trypan blue exclusion", "description": "FIG. 7 is a graph showing no cytotoxicity of LMH001 on living mouse microvascular endothelial cells (SVEC4-10) and human liver hepatocyte cells (HepG2), assessed by trypan blue exclusion and viable cell number counting. Cells were cultured with LMH001 (5 and 10 μM) for 24 h. Cell viabilities of SVEC4-10 cells and HepG2 cells in the presence of LMH001 (5 and 10 μM) were expressed as % of alive cells compared to cells in the absence of LMH001 (control, 100%). Results are presented as mean±SD (n=3).\nHepG2 is a human hepatocytic cell line (ATCC No. HB-8065) that was originally derived from liver tissue with a well differentiated hepatocellular carcinoma. HepG2 cells have been proven to be a suitable in vitro model system for the study of human hepatocytes, and the study of liver metabolism and toxicity. […]\nCell viability and membrane integrity in the presence and absence of LMH001 were assessed using the trypan blue exclusion assay as described previously (15). […] At the time of experiment, cells were harvested by 0.25% Trypsin/EDTA, pelleted, resuspended in serum free medium and counted using a haemocytometer in the presence of trypan blue (0.4%) solution. The number of viable cells was calculated as a percentage of total cells."}, "[2]": {"system": "human lung alveolar epithelial cancer cells (A549 cells)", "assay": "EGF-induced O2.- production in A549 cells, lucigenin-chemiluminescence", "conditions": "LMH001 5 μM, 24 h", "description": "A549 cells were seeded at equal number the day before experiments and then stimulated with or without […] (EGF, 10 ng/ml) for 24 h in the presence or absence of LMH001 (5 μM). Cells were then trypsinized and counted. Cell homogenates were used for measuring O2.^− production by lucigenin-chemiluminescence in the presence of NADPH (100 μM).\nA549 is a human lung adenocarcinoma epithelial cell line. A549 cells were grown in DMEM, containing 10% (v/v) heat inactivated foetal calf serum, 100 U/mL penicillin and […] streptomycin, in a humidified atmosphere at 37° C. with 5% CO2.\nO2^− production by different cell types was measured using lucigenin (5 μM)-chemiluminescence. A microplate luminometer (LumiStar, BMG) was used, which allows the examination of 96 samples at the same time with kinetic reading facilities. […] Dark-adapted lucigenin (5 μM) was added into the well through an auto-dispenser located in the dark chamber just before reading. The light emission was recorded over a 60 minute period and expressed as arbitrary MLU measured by the illuminometer. Each experiment was performed in triplicate and the mean of 3 blank readings was subtracted from each corrected value for each reading. […]"}, "[3]": {"system": "human liver hepatocyte cells (HepG2 cells)", "assay": "MTT assay for cytotoxicity, HepG2", "conditions": "HepG2, LMH001 5 and 10 μM, 24 h", "description": "FIG. 8 is a graph showing no cytotoxicity of LMH001 on living mouse microvascular endothelial cells (SVEC4-10 cells) and human liver hepatocyte cells (HepG2 cells), assessed by means of an MTT assay. Cells were cultured with LMH001 (5 and 10 μM) for 24 h. MTT is a yellow tetrazolium reagent which can be converted by living cells to insoluble blue formazan crystal in the medium. The insoluble blue formazan crystals were then dissolved in DMSO and measured for absorbance at 570 nm by a plate reader. Higher absorbance corresponds to more living cells. Results are presented as mean±SD (n=3).\nHepG2 is a human hepatocytic cell line (ATCC No. HB-8065) that was originally derived from liver tissue with a well differentiated hepatocellular carcinoma. HepG2 cells have been proven to be a suitable in vitro model system for the study of human hepatocytes, and the study of liver metabolism and toxicity. HepG2 cells were grown in DMEM, containing 10% (v/v) heat inactivated foetal calf serum, 100 U/mL penicillin and […] streptomycin, in a humidified atmosphere at 37° C. with 5% CO2.\nThe potential cytotoxicity of LMH001 on cultured endothelial cells (SVEC4-10) and liver cells (HepG2) was assessed using the MIT assay as described previously (16). […] Absorbance was measured at 570 nm in an ELISA plate reader and the mean of 3 blank readings was subtracted from each corrected value."}},
  "data": [
    {"smiles": "O=C(OCc1cccc(O)c1O)c1ccc(O)c(CO)c1", "note": "[LMH001, (2,3,-dihydroxyphenyl)methyl 4-hydroxy-3-(hydroxymethyl)benzoate]", "values": [
      {"measurement": "cell viability (% of alive cells vs control)", "setting": "[1]", "result": "no significant difference"},
      {"measurement": "EGF-induced O2.- production", "setting": "[2]; EGF 10 ng/ml", "result": "inhibited completely"},
      {"measurement": "A549 cell O2.- production, LMH001 alone", "setting": "[2]; no EGF, compared to medium only", "result": "no significant effect"},
      {"measurement": "cytotoxicity, MTT absorbance at 570 nm", "setting": "[3]", "result": "no significant difference"}
    ]}
  ]
}
